Activity calls are given as the source filed them. The calls are words filed in the database; no cut-off is given here.
How the values were obtained:
[1] = Prodrug conversion in human CEM/0 cell extract assessed as metabolite formation by measuring half life by HPLC analysis; format: ADME; conditions: ccrf-cem
[2] = Selectivity index, ratio of CC50 for human CEM cells to EC50 for HIV-2 ROD infected in thymidine kinase-deficient human CEM cells; format: toxicity; conditions: read-out: Ratio CC50/EC50
[3] = system: Human immunodeficiency virus 2; experiment: Potency index, ratio of 3'-deoxy-2',3'-dehydrothymidine EC50 to compound EC50 for antiviral activity against HIV-2 ROD infected in thymidine kinase-deficient human CEM[…] cells; format: functional
[4] = molecular target: T1, DNA polymerase subunit gamma-1 (Homo sapiens) (UniProt P54098); experiment: Substrate activity at human DNA polymerase gamma measured after 4 hrs by electrophoresis based primer extension assay
T1 sequence (whole entry): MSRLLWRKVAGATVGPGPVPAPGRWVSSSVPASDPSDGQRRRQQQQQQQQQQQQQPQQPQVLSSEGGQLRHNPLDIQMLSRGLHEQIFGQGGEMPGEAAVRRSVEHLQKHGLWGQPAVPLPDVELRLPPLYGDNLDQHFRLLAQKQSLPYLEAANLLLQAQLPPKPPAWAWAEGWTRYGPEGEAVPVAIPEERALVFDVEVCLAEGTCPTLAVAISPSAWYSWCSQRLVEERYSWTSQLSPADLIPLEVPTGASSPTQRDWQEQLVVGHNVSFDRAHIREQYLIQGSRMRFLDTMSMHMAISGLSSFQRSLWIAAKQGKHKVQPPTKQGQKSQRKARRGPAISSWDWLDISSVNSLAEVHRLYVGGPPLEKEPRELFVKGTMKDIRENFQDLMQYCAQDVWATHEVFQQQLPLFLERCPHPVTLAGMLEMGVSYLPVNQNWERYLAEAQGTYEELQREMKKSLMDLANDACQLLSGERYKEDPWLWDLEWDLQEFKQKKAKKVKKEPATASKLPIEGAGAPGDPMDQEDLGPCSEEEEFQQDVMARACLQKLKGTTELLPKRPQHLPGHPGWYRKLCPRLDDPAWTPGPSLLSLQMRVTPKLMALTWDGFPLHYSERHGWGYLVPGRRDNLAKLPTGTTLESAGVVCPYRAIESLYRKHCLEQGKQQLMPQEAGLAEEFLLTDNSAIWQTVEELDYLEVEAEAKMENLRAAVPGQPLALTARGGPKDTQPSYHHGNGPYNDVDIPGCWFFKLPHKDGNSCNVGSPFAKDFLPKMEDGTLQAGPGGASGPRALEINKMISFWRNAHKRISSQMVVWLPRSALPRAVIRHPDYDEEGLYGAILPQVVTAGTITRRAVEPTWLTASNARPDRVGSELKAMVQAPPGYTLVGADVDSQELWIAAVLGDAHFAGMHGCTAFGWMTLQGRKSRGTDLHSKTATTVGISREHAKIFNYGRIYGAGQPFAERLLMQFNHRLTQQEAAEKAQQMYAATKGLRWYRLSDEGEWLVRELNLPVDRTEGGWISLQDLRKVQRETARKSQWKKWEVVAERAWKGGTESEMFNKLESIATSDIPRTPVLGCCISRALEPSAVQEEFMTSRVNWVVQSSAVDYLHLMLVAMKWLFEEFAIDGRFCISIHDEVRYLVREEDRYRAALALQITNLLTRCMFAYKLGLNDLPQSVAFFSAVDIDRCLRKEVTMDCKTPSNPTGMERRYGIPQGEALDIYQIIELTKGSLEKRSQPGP

[5] = system: Human immunodeficiency virus 2; experiment: Potency index, ratio of 3'-deoxy-2',3'-dehydrothymidine EC50 to compound EC50 for antiviral activity against HIV-2 ROD infected in wild-type human CEM/0 cells; format: functional
[6] = system: Human immunodeficiency virus; experiment: Substrate activity at HIV reverse transcriptase measured after 4 hrs by electrophoresis based primer extension assay
[7] = Prodrug conversion in human CEM/0 cell extract assessed as ((2S,5R)-5-(5-methyl-2,4-dioxo-3,4-dihydropyrimidin-1(2H)-yl)-2,5-dihydrofuran-2-yl)methyl tri-hydrogen diphosphate formation by HPLC analysis; format: ADME; conditions: ccrf-cem
[8] = Prodrug conversion in human CEM/0 cell extract assessed as ((2S,5R)-5-(5-methyl-2,4-dioxo-3,4-dihydropyrimidin-1(2H)-yl)-2,5-dihydrofuran-2-yl)methyl dihydrogen phosphate formation by HPLC analysis; format: ADME; conditions: ccrf-cem
[9] = Retention time of the compound by HPLC analysis; format: physicochemical

With `CCCCCCCCCCCCCCCCCCP(=O)(OC)OP(=O)(O)OP(=O)(O)OC[C@@H]1C=C[C@H](n2cc(C)c(=O)[nH]c2=O)O1.N.N` (some centres undefined) the t1/2 [1] was > 15 h, the selectivity ratio [2] was 83 and the “Ratio EC50” value [3] was 10000. The Activity [4] was “inactive”, the “Ratio EC50” value [5] was 4 and the Activity [6] was “Active”. For the same compound, the Drug metabolism [7] was “Metabolite_Detected”, the Drug metabolism [8] was “Metabolite_Detected” and the Retention_time [9] was 15.2 min.

Source: ChEMBL document CHEMBL5365447, “Pronucleotides of 2',3'-Dideoxy-2',3'-Didehydrothymidine as Potent Anti-HIV Compounds” (J Med Chem, 2023)
